Drawing on patent publication US10093611B2, “Benzocycloalkenes as antifungal agents” (Bayer Intellectual Property GmbH, priority 2010, dated 2018), this text covers Efficacy for 5 compounds.

The subject of the test is Venturia inaequalis. Description: In vivo preventive test on Venturia inaequalis (apples). The note with it: 100 ppm of active ingredient, evaluated 10 days after inoculation. The method, then:
EXAMPLE J: IN VIVO PREVENTIVE TEST ON VENTURIA INAEQUALIS (APPLES) Solvent: 24.5 parts by weight of acetone • 24.5 parts by weight of N,N-dimethylacetamide Emulsifier: 1 part by weight of alkylaryl polyglycol ether To produce a suitable preparation of active compound, 1 part by weight of active compound is mixed with the stated amounts of solvent and emulsifier, and the concentrate is diluted with water to the desired concentration. To test for preventive activity, young plants are sprayed with the preparation of active compound at the stated rate of application. After the spray coating has dried on, the plants are inoculated with an aqueous conidia suspension of the causal agent of apple scab (Venturia inaequalis) and then remain for 1 day in an incubation cabinet at approximately 20° C. and a relative atmospheric humidity of 100%. The plants are then placed in a greenhouse at approximately 21° C. and a relative atmospheric humidity of approximately 90%. The test is evaluated 10 days after the inoculation. 0% means an efficacy which corresponds to that of the untreated control, while an efficacy of 100% means that no disease is observed. Under these conditions, total protection is observed at a dose of 100 ppm of active ingredient with the following compounds from table J: […]

`CC(C1Cc2ccccc2C1)N(C(=O)c1c(C(F)F)nn(C)c1F)C1CC1` (centres unmarked) [Example 14, N-cyclopropyl-3-(difluoromethyl)-N-[1-(indan-2-yl)ethyl]-5-fluoro-1-methyl-1H-pyrazole-4-carboxamide] displayed an Efficacy of 100%. As for `CC(C1CCc2ccccc2C1)N(C(=O)c1c(C(F)F)nn(C)c1F)C1CC1` (centres unmarked) [Example 16], the Efficacy is given as 100%. Consider `CCc1nn(C)c(F)c1C(=O)N(C1CC1)C(C)C1Cc2ccccc2C1` (centres unmarked) [Example 12], for which the Efficacy amounted to 100%. `Cc1nn(C)c(F)c1C(=O)N(C1CC1)C(C)C1Cc2ccccc2C1` (centres unmarked) [Example 11] had an Efficacy of 100%. As for `CC(C1Cc2ccccc2C1)N(C(=O)c1cn(C)nc1C(F)F)C1CC1` (centres unmarked) [Example 13], the Efficacy turned out to be 100%.
